Data as given in patent publication US20260183301A1, “TREATING DISEASES AND DISORDERS WITH IRAK4-MODIFYING COMPOUNDS” (Curis, Inc., priority 2022, published 2026).
“Also recorded” adds a separate entry of the source.

Assay: Phase I dose escalation trial in NHL: safety and tolerance (adverse effects, DLT)
[1] = 300 mg BID, N = 6, [E] not defined
[2] = 400 mg BID, N = 8, [E] not defined

Procedure: Seven dosing cohorts included 50 and 100 mg QD, and 50, 100, 200, 300, or 400 mg BID of daily continuous oral monotherapy in 21-Day cycles. Objective included safety and tolerance (primary), pk/pd and early efficacy (secondary), and biomarker correlations (exploratory). 31 patients with resistant or refractory, advanced NHL have been enrolled.

Structure (SMILES): Cc1cc(-c2nc(C(=O)Nc3cc4oc(N5CCOCC5)nc4nc3N3CC[C@@H](O)C3)co2)ccn1 [Compound 1, emavusertib]
- Oedema, Grade 3 or 4 (300 mg BID (n = 6)): 0%
- Peripheral sensory neuropathy, All Grades (300 mg BID (n = 6)): 0%
- Peripheral sensory neuropathy, Grade 3 or 4 (300 mg BID (n = 6)): 0%
- Rhabdomyolysis, All Grades (300 mg BID (n = 6)): 0%
- Rhabdomyolysis, Grade 3 or 4 (300 mg BID (n = 6)): 0%
- Upper respiratory infection, All Grades (300 mg BID (n = 6)): 0%
- Upper respiratory infection, Grade 3 or 4 (300 mg BID (n = 6)): 0%
- Vomiting, All Grades (300 mg BID (n = 6)): 20%
- Vomiting, Grade 3 or 4 (300 mg BID (n = 6)): 20%
- Anemia, All Grades (300 mg BID, N = 6): 2 (33.3) n (%)
- Anemia, Grade 3 or Higher (300 mg BID, N = 6): 0 n (%)
- Neutropenia, All Grades (300 mg BID, N = 6): 1 (16.7) n (%)
- Neutropenia, Grade 3 or Higher (300 mg BID, N = 6): 1 (16.7) n (%)
- Thrombocytopenia, All Grades (300 mg BID, N = 6): 0 n (%)
- Thrombocytopenia, Grade 3 or Higher (300 mg BID, N = 6): 0 n (%)
- Anemia, All Grades [E] [1]: [3]
- Neutropenia, All Grades [E] [1]: [5]
- Neutropenia, Grade 3 or Higher [E] [1]: [1]
- DLT (300 mg BID, six patients): without DLT
- Back pain, All Grades (400 mg BID (n = 8)): 12.5%
- Back pain, Grade 3 or 4 (400 mg BID (n = 8)): 0%
- Constipation, All Grades (400 mg BID (n = 8)): 20%
- Constipation, Grade 3 or 4 (400 mg BID (n = 8)): 0%
- Cough, All Grades (400 mg BID (n = 8)): 0%
- Cough, Grade 3 or 4 (400 mg BID (n = 8)): 0%
- Dehydration, All Grades (400 mg BID (n = 8)): 12.5%
- Dehydration, Grade 3 or 4 (400 mg BID (n = 8)): 0%
- Diarrhea, All Grades (400 mg BID (n = 8)): 25%
- Diarrhea, Grade 3 or 4 (400 mg BID (n = 8)): 0%
- Dizziness, All Grades (400 mg BID (n = 8)): 25%
- Dizziness, Grade 3 or 4 (400 mg BID (n = 8)): 0%
- Dyspnoe, All Grades (400 mg BID (n = 8)): 12.5%
- Dyspnoe, Grade 3 or 4 (400 mg BID (n = 8)): 12.5%
- Fatigue, All Grades (400 mg BID (n = 8)): 50%
- Fatigue, Grade 3 or 4 (400 mg BID (n = 8)): 0%
- Headache, All Grades (400 mg BID (n = 8)): 12.5%
- Headache, Grade 3 or 4 (400 mg BID (n = 8)): 0%
- Insomnia, All Grades (400 mg BID (n = 8)): 12.5%
- Insomnia, Grade 3 or 4 (400 mg BID (n = 8)): 0%
- Muscle weakness, All Grades (400 mg BID (n = 8)): 12.5%
- Muscle weakness, Grade 3 or 4 (400 mg BID (n = 8)): 0%
- Myalgia, All Grades (400 mg BID (n = 8)): 37.5%
- Myalgia, Grade 3 or 4 (400 mg BID (n = 8)): 0%
- Nausea, All Grades (400 mg BID (n = 8)): 50%
- Nausea, Grade 3 or 4 (400 mg BID (n = 8)): 0%
- Oedema, All Grades (400 mg BID (n = 8)): 0%
- Oedema, Grade 3 or 4 (400 mg BID (n = 8)): 0%
- Peripheral sensory neuropathy, All Grades (400 mg BID (n = 8)): 25%
- Peripheral sensory neuropathy, Grade 3 or 4 (400 mg BID (n = 8)): 0%
- Rhabdomyolysis, All Grades (400 mg BID (n = 8)): 25%
- Rhabdomyolysis, Grade 3 or 4 (400 mg BID (n = 8)): 25%
- Upper respiratory infection, All Grades (400 mg BID (n = 8)): 12.5%
- Upper respiratory infection, Grade 3 or 4 (400 mg BID (n = 8)): 0%
- Vomiting, All Grades (400 mg BID (n = 8)): 25%
- Vomiting, Grade 3 or 4 (400 mg BID (n = 8)): 0%
- Anemia, All Grades (400 mg BID, N = 8): 1 (12.5) n (%)
- Anemia, Grade 3 or Higher (400 mg BID, N = 8): 1 (12.5) n (%)
- Neutropenia, All Grades (400 mg BID, N = 8): 2 (25.0) n (%)
- Neutropenia, Grade 3 or Higher (400 mg BID, N = 8): 0 n (%)
- Thrombocytopenia, All Grades (400 mg BID, N = 8): 1 (12.5) n (%)
- Thrombocytopenia, Grade 3 or Higher (400 mg BID, N = 8): 1 (12.5) n (%)
- Anemia, All Grades [E] [2]: [1]
- Anemia, Grade 3 or Higher [E] [2]: [1]
- Neutropenia, All Grades [E] [2]: [3]
- Thrombocytopenia, All Grades [E] [2]: [2]
- Thrombocytopenia, Grade 3 or Higher [E] [2]: [2]
- DLT-evaluable patients with Grade 3 rhabdomyolysis (DLTs) (400 mg BID, reversible after treatment interruption): 2 of 5
- Grade 3 combined episodes of neutropenia, anemia, thrombocytopenia (18 patients at 200 to 400 mg BID): 4
- toxic deaths (Phase I NHL): No toxic deaths
- overall safety and tolerance (Phase I NHL, 50 mg QD to 400 mg BID): well tolerated; also recorded: good safety and tolerance
- creatine phosphokinase (CPK) elevation, grade (WM patient, 200 mg po BID, asymptomatic, resolved with exercise moderation): grade 2
- tolerability (WM patient, continuous oral treatment for close to 18 months): well tolerated
- tolerability (WM patient, first dose level 50 mg): without adverse events
- safety and tolerability profile (at RP2D (300 mg BID)): acceptable safety and tolerability profile
- grade of most non-hematologic TEAEs (diarrhea, vomiting, fatigue, dyspnea, myalgia): Grade 1 or 2
